Source: BindingDB's records for doi:10.1021/jm00085a017 (Institute of Research, 1992)

Assay: Inhibition of the release of Alpha-amylase from rat pancreatic acinar cells.

Row | Structure (SMILES) | IC50 [nM]
1 | CCN(CC)CCCOC(=O)C(C)(c1ccccc1)C1CCCCC1 (centres undefined) | 21
2 | CN(C)CCCOC(=O)C(C)(c1ccccc1)C1CCCCC1 (centres undefined) | 10
3 | CCN(CC)CCOC(=O)C(C)(c1ccccc1)C1CCCCC1 (centres undefined) | 52
4 | CCN(CC)CCCCCOC(=O)C(C)(c1ccccc1)C1CCCCC1 (centres undefined) | 2700
